Data reported in PMC9643506 (Scientific Reports, 2022).
Like-named read-outs stand apart in the source and are kept apart here. Non-standard residues stand in square brackets, D forms with d. Residues, ends and D or L forms follow the SMILES beside them. No end group written: not given here. d2Nal = N[C@H](Cc1ccc2ccccc2c1)C(=O)O; αMeF = C[C@](N)(Cc1ccccc1)C(=O)O

Assays:
U87-MG cells = test: MTT cytotoxicity assay, U87-MG cells; format: cell-based, human; conditions: 24 h treatment, mean ± SEM, n = 3 wells per experiment, 2–3 independent experiments
Experimental: (§1) Cisplatin, a cytostatic drug commonly used for cancer chemotherapy, was used as a reference compound.
(§2) The colorimetric tetrazolium salt assay with 3-([…]-2-yl)-2,5-diphenyltetrazolium bromide (MTT) was used to evaluate the cytotoxicity potential of the antagonists BK in the cancer cell lines H4, U87-MG, and SHP-77 (see Supporting Information for details)[52].
(§3) Cell lines were seeded at a concentration of 5000 cells/well (H4) and 10000 cells/well (U87-MG, SHP-77) in 96-well plates and incubated for 24 hours. […] These compounds were dissolved in redistilled water and added to the cultures at a final concentration of 0.1%. Twenty-four hours after treatment with the drugs, the MTT assay was performed according to the procedure described previously.^52 MTT solution was added to each well (at a final concentration of 0.15 mg/mL) and then incubated at 37°C for 30 minutes. Formosan crystals were resolved and measured at 570 nm using a 96-well microplate reader (Thermo Lab system Multiscan Spectrum). […] Data were analyzed using GraphPad Prism 7.04 software. Statistical differences were calculated using a one-way analysis of variance (ANOVA) followed by Tukey’s posthoc test. Values of p < 0.05 were considered significant.

H4 cells = test: MTT cytotoxicity assay, H4 cells; format: cell-based, human; conditions: 24 h treatment, mean ± SEM, n = 3 wells per experiment, 2–3 independent experiments
Experimental: as §1, §2, §3

B1R = biological target: T1, B1R (Homo sapiens, UniProt P46663); test: IP-one (intracellular IP1) assay in T-REx 293/B1R cell line; format: cell-based
T1 construct: Thermo Fisher Scientific (T-REx 293 cells)
T1 sequence (P46663 1-353): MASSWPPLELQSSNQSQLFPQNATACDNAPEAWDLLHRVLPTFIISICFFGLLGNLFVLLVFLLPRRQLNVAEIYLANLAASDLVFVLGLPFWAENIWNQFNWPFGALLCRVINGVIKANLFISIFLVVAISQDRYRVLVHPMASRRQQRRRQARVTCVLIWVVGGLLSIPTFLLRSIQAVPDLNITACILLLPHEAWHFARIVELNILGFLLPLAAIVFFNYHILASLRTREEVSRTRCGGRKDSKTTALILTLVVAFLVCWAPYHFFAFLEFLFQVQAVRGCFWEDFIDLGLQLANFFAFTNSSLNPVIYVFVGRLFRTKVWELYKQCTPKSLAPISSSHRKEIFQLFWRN
Experimental: Cell culture and transfection.
(§4) The cell pellet was suspended in Hanks-HEPES (130 mM NaCl, 5.4 mM KCl, 1.8 mM CaCl2, 0.8 mM MgSO4, 0.9 mM NaH2PO4, 20 mM HEPES, LiCl 50 mM, and 3.25 mM glucose; pH 7.4).
Data were analyzed using GraphPad Prism version 5.04 for Windows (GraphPad software).

[1] = tested on: caspase-3 and PARP cleavage; test: Western blot of caspase-3 activation and PARP cleavage in U87-MG, SHP-77 and H4 cells; format: cell-based, human; conditions: 24 h
Experimental: To verify whether the cytotoxic effects of the new B1R antagonists are mediated by apoptosis, the activation level of caspase-3, a key enzyme in the apoptosis process, and PARP protein, the caspase-3 substrate, were determined by Western blot analysis.
Cisplatin at 25 µM was used to induce control apoptosis. No significant change in the amount of cleaved PARP or caspase-3 activation was observed after B1R antagonist treatment compared with untreated cells (Fig. 5).
Figure 5 The effects of B1R antagonists and cisplatin on the expression levels of caspase-3 and PARP cleavage in cell lines U87-MG, SHP-77, and H4 were determined by Western blotting. 1. control cells; 2. cisplatin (25 μM); 3. […] BK11 (50 μM). […] Representative Western blot images showing expression of β-actin were used as a reference protein. Each picture represents a vertically cut part of nitrocellulose membranes. The membranes were cut before antibody application, considering the size margin according to the size of the molecular weight marker.
Western blot analysis was performed to evaluate the potential mechanism of cytotoxic activity of the antagonists of BK in cancer cell lines H4, U87-MG, and SHP-77 (see Supporting Information for details). Detection was performed using Pierce ECL Western blotting substrate (Thermo Fisher Scientific) and a Syngene GeneGnomeXRQ chemiluminescence analysis system. […]

SHP-77 cells = test: MTT cytotoxicity assay, SHP-77 cells; format: cell-based, human; conditions: 24 h treatment, mean ± SEM, n = 3 wells per experiment, 2–3 independent experiments
Experimental: as §1, §2, §3

B1R in H4 cell line = test: Functional assay: shift of BK dose-response curve by B1R antagonist, H4 cells; format: cell-based, human; conditions: antagonist 10 µM
From the text: (§5) In further experiments, the U87-MG, SHP-77, and H4 cell lines were used for the functional assay with BK and the reference B1R antagonist. As shown in Fig. 13S in Supplementary File, all three cell lines expressed the functional B1R protein and its activity according to the mRNA level shown in Fig. 4. The obtained results are consistent with previous findings showing the expression of functional B1R and B2R genes and proteins in human glioblastoma cells U87-MG[32],[33]. In other studies, cellular expression of B1 and B2 receptors was detected in five different subtypes of human lung carcinomas (adenocarcinoma, squamous cell carcinoma, large cell carcinoma, small cell carcinoma, and carcinoid tumors)[34]. In addition, B2R has also been characterized in the cell line SHP-77[35]. However, to our knowledge, this is the first time that we have detected B1R and B2R gene expression in H4 cells of human brain neuroglioma and B1R in SHP-77 cells of human lung carcinoma.
(§6) Figure 13S. […] All three cell lines expressed the functional protein B1R.

B1R in U87-MG cell line = test: Functional assay: shift of BK dose-response curve by B1R antagonist, U87-MG cells; format: cell-based, human; conditions: antagonist 10 µM
From the text: as §5, §6

B1R in SHP-77 cell line = test: Functional assay: shift of BK dose-response curve by B1R antagonist, SHP-77 cells; format: cell-based, human; conditions: antagonist 10 µM
From the text: as §5, §6

mock T-REx 293 cell line = test: IP1 assay in mock T-REx 293 cells without transfection of bradykinin receptors; format: cell-based, human; conditions: various doses of BK
Experimental: as §4

| Compound | MTT, percentage of control, U87-MG (U87-MG cells; 25 µM) | MTT, percentage of control, U87-MG (U87-MG cells; 100 µM) | MTT, percentage of control, H4 (H4 cells; 25 µM) | MTT, percentage of control, H4 (H4 cells; 100 µM) | MTT, percentage of control, SHP-77 (SHP-77 cells; 25 µM) | MTT, percentage of control, SHP-77 (SHP-77 cells; 100 µM) | also measured |
| --- | --- | --- | --- | --- | --- | --- | --- |
| N=C(N)NCCC[C@H](NC(=O)[C@H](Cc1cccs1)NC(=O)[C@H]1CCCCN1C(=O)[C@H](CO)NC(=O)[C@H](Cc1cccs1)NC(=O)CNC(=O)[C@@H]1C[C@@H](O)CN1C(=O)[C@@H]1CCCN1C(=O)[C@H](CCCNC(=N)N)NC(=O)[C@@H](CCCNC(=N)N)NC(=O)CC12CC3CC(CC(C3)C1)C2)C(=O)O [BK11] | 96.125 ± 1.241 % of control | 81.07 ± 4.542 % of control | 94.235 ± 3.538 % of control | 65.668 ± 3.305 % of control | 96.421 ± 3.474 % of control | 85.391 ± 5.646 % of control | B1R screening, effect in the presence of BK (antagonist mode) (B1R; T-REx 293/B1R cells, 25 μM analog with BK at EC80): antagonistic effect; caspase-3 activation and PARP cleavage (Western blot) ([1]; 50 μM, compared with untreated control cells): no induction of caspase-3 and PARP |
| N.N.[Cl][Pt][Cl] [Cisplatin] | 50.357 ± 4.97 % of control | 32.63 ± 6.934 % of control | 25.389 ± 3.71 % of control | 5.809 ± 1.488 % of control | 53.631 ± 12.052 % of control | 37.989 ± 11.626 % of control | caspase-3 activation and PARP cleavage (Western blot) ([1]; 25 μM, positive control of apoptosis): induction of caspase-3 and processed PARP fragments |
| CC[C@H](C)[C@H](NC(=O)[C@@H](Cc1ccc2ccccc2c1)NC(=O)[C@H](CO)NC(=O)[C@](C)(Cc1ccccc1)NC(=O)CNC(=O)[C@@H]1CCCN1C(=O)[C@@H]1CCCN1C(=O)[C@H](CCCNC(=N)N)NC(=O)[C@H](CCCCN)NC(C)=O)C(=O)O [R 892] (Ac-KRPPG[αMeF]S[d2Nal]I-OH; N-terminus and C-terminus assumed) |  |  |  |  |  |  | shift of BK EC50 after treatment with the B1R antagonist (B1R in H4 cell line): < 2 x; shift of BK EC50 after treatment with the B1R antagonist (B1R in U87-MG cell line): over 3 times; EC50 (B1R; T-REx 293/B1R cells, in the presence of EC80 BK (1250 nM), SD ± 66 nM, read-out: EC50 value for decrease of IP1 levels (B1R antagonist)): 69 nM; shift of BK EC50 after treatment with the B1R antagonist (B1R in SHP-77 cell line): 2,5 x |
| RPPGFSPFR [BK, Bradykinin] |  |  |  |  |  |  | EC50 (B1R): 1300 nM |
| RPPGFSPFR-OH [BK, Bradykinin] |  |  |  |  |  |  | response in IP1 assay, mock cells (mock T-REx 293 cell line): did not respond |
